One experiment deals with T1, human A2B receptors (Homo sapiens, UniProt P29275).
T1 construct: expressed in transfected cells; host or cells: HEK293
T1 sequence (P29275 1-332): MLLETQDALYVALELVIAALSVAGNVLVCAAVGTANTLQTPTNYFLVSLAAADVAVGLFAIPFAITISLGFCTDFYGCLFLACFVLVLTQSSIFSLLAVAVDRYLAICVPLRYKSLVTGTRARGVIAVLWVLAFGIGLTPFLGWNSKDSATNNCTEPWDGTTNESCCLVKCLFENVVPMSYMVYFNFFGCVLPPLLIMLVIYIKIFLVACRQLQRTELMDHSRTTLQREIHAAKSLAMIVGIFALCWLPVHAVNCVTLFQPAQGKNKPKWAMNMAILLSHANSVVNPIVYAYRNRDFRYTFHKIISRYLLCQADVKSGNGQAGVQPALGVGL
The experiment in a line: Functional human A2B receptor activity, recombinant HEK293 cells, cAMP (HTRF). The class given is cell-based. The settings on record: read-out: A2B (Category). As for the experimental part:
(§1) The functional activities of human A2A and A2B receptors were determined by quantification of cAMP, being the second messenger for adenosine receptors.
(§2) After a 15 min incubation, HTRF reagents (cAMP dynamic 2, Cis Bio) were added and the cellular cAMP levels were determined using the ENVISION (Perkin Elmer) plate reader.

For another experiment, the target named is T2, human A2A receptors (Homo sapiens, UniProt P29274).
T2 construct: expressed in transfected cells; host or cells: HEK293
T2 sequence (P29274 whole entry): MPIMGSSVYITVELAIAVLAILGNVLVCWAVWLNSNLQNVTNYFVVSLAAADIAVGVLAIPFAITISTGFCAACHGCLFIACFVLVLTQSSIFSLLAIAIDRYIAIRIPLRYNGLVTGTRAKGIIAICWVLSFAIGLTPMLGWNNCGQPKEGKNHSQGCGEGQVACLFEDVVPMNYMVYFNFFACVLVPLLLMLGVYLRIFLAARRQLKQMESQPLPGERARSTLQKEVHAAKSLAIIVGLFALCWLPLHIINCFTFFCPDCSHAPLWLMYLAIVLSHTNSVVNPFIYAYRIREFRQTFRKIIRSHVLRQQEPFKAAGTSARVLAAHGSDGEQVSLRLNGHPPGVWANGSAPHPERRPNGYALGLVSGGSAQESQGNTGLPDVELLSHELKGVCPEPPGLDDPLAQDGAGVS
The experiment in a line: Functional human A2A receptor activity, recombinant HEK293 cells, cAMP (HTRF). The class given is cell-based. The settings on record: read-out: A2A (Category). Here is the method: as §1, §2

Read-outs that look alike come from different tables or passages of the source. A value given as a limit tells only on which side of the number the result lay.

Regarding `O=C(c1cc2c(cn1)c(-c1cnc3c(F)cc(F)cn13)nn2CC(F)(F)F)N1[C@@H]2CC[C@H]1C[C@@H](O)C2` [Compound 168, [3-(6,8-Difluoro-imidazo[1,2-a]pyridin-3-yl)-1-(2,2,2-trifluoro-ethyl)-1H-pyrazolo[4,3-c]pyridin-6-yl]-(3-endo-hydroxy-8-aza-bicyclo[3.2.1]oct-8-yl)-methanone], the IC50 at human A2B receptors and on human A2A receptors was less than 100 nM throughout.

In the case of `Cc1cc(C(N)=O)cn2c(-c3nn(CC(F)(F)F)c4cc(C(=O)N5CCCCCC5)ncc34)cnc12` [Compound 244, 3-[6-(Azepane-1-carbonyl)-1-(2,2,2-trifluoro-ethyl)-1H-pyrazolo[4,3-c]pyridin-3-yl]-8-methyl-imidazo[1,2-a]pyridine-6-carboxylic acid amide], the IC50 on human A2B receptors was less than 1000 nM; at human A2A receptors, less than 100 nM.

Turning to `CS(=O)(=O)Cn1nc(-c2coc3ccc(F)cc23)c2cnc(C(=O)N3CCCOCC3)cc21` [Compound 110, [3-(5-fluorobenzofuran-3-yl)-1-(methylsulfonylmethyl)pyrazolo[4,3-c]pyridin-6-yl]-(1,4-oxazepan-4-yl)methanone], the IC50 at human A2B receptors and at human A2A receptors was less than 100 nM each time.

`O=C(c1cc2c(cn1)c(-c1cnc3c(F)cccn13)nn2CC(F)(F)F)N1CCCCCC1` [Compound 62, Azepan-1-yl-[3-(8-fluoro-imidazo[1,2-a]pyridin-3-yl)-1-(2,2,2-trifluoro-ethyl)-1H-pyrazolo[4,3-c]pyridin-6-yl]-methanone]: the IC50 on human A2B receptors and on human A2A receptors was less than 100 nM throughout.

For the molecule `O=C(c1cc2c(cn1)c(-c1cnc3ccc(F)cn13)nn2CC(F)(F)F)N1CCCCCC1` [Compound 44, Azepan-1-yl-[3-(6-fluoro-imidazo[1,2-a]pyridin-3-yl)-1-(2,2,2-trifluoro-ethyl)-1H-pyrazolo[4,3-c]pyridin-6-yl]-methanone], the IC50 at human A2B receptors and on human A2A receptors was less than 100 nM in each case.

`CS(=O)(=O)Cn1nc(-c2coc3ccccc23)c2cnc(C(=O)N3CCCC(O)C3)cc21` (stereo not drawn) [Compound 38, (3-Benzofuran-3-yl-1-methanesulfonylmethyl-1H-pyrazolo[4,3-c]pyridin-6-yl)-(3-hydroxy-piperidin-1-yl)-methanone]: the IC50 is less than 1000 nM on human A2B receptors and less than 100 nM on human A2A receptors.

Turning to `O=C(c1cc2c(cn1)c(-c1cnc3c(F)cc(F)cn13)nn2CC(F)(F)F)N1CC2CCC(C1)C2O` (stereo not drawn) [Compound 187, [3-(6,8-Difluoro-imidazo[1,2-a]pyridin-3-yl)-1-(2,2,2-trifluoro-ethyl)-1H-pyrazolo[4,3-c]pyridin-6-yl]-(8-endo-hydroxy-3-aza-bicyclo[3.2.1]oct-3-yl)-methanone], the IC50 at human A2B receptors (recombinant HEK293 cells expressing human A2B receptor, agonist NECA, cAMP HTRF, 15 min incubation) was less than 1000 nM; on human A2A receptors (recombinant HEK293 cells expressing human A2A receptor, agonist NECA, cAMP HTRF, 15 min incubation), less than 100 nM.

With `O=C(c1cc2c(cn1)c(-c1cnc3c(F)cc(F)cn13)nn2CC(F)(F)F)N1CCC(O)(c2cccnc2)CC1` [Compound 147, [3-(6,8-Difluoro-imidazo[1,2-a]pyridin-3-yl)-1-(2,2,2-trifluoro-ethyl)-1H-pyrazolo[4,3-c]pyridin-6-yl]-(4′-hydroxy-3′,4′,5′,6′-tetrahydro-2′H-[3,4′]bipyridinyl-1′-yl)-methanone], the IC50 at human A2B receptors was less than 1000 nM; on human A2A receptors, less than 100 nM.

With `O=C(c1cc2c(cn1)c(-c1c[nH]c3ccccc13)nn2CC(F)(F)F)N1CC2CCC(C1)O2` [Compound 243, [3-(1H-indol-3-yl)-1-(2,2,2-trifluoroethyl)pyrazolo[4,3-c]pyridin-6-yl]-(8-oxa-3-azabicyclo[3.2.1]octan-3-yl)methanone], the IC50 at human A2B receptors is less than 1000 nM; on human A2A receptors, less than 100 nM.

Turning to `CC1(O)CCN(C(=O)c2cc3c(cn2)c(-c2cnc4c(F)cc(F)cn24)nn3CC(F)(F)F)CC1` [Compound 133, [3-(6,8-Difluoro-imidazo[1,2-a]pyridin-3-yl)-1-(2,2,2-trifluoro-ethyl)-1H-pyrazolo[4,3-c]pyridin-6-yl]-(4-hydroxy-4-methyl-piperidin-1-yl)-methanone], the values for the IC50 at human A2B receptors and on human A2A receptors were less than 1000 nM and less than 100 nM, respectively.

Turning to `O=C(c1cc2c(cn1)c(-c1cnc3c(F)cc(F)cn13)nn2CC(F)(F)F)N1CCCC(O)C1` (stereo not drawn) [Compound 151, [3-(6,8-Difluoro-imidazo[1,2-a]pyridin-3-yl)-1-(2,2,2-trifluoro-ethyl)-1H-pyrazolo[4,3-c]pyridin-6-yl]-(3-hydroxy-piperidin-1-yl)-methanone], the IC50 at human A2B receptors is less than 1000 nM; at human A2A receptors, less than 100 nM.

In the case of `O=C(c1cc2c(cn1)c(-c1cnc3c(F)cc(F)cn13)nn2CC(F)(F)F)N1CCCC(F)(F)C1` [Compound 159, [3-(6,8-Difluoro-imidazo[1,2-a]pyridin-3-yl)-1-(2,2,2-trifluoro-ethyl)-1H-pyrazolo[4,3-c]pyridin-6-yl]-(3,3-difluoro-piperidin-1-yl)-methanone], the IC50 was less than 1000 nM at human A2B receptors and less than 100 nM at human A2A receptors.

For the molecule `O=C(c1cc2c(cn1)c(-c1c[nH]c3ncccc13)nn2CC(F)(F)F)N1CCCCCC1` [Compound 92, Azepan-1-yl-[3-(1H-pyrrolo[2,3-b]pyridin-3-yl)-1-(2,2,2-trifluoro-ethyl)-1H-pyrazolo[4,3-c]pyridin-6-yl]-methanone], the IC50 at human A2B receptors was less than 1000 nM; on human A2A receptors it was less than 100 nM.

For `O=C(c1cc2c(cn1)c(-c1cnc3ccc(O)cn13)nn2CC(F)(F)F)N1[C@@H]2CC[C@H]1C[C@@H](O)C2` [Compound 88, (3-endo-hydroxy-8-azabicyclo[3.2.1]octan-8-yl)-[3-(6-hydroxyimidazo[1,2-a]pyridin-3-yl)-1-(2,2,2-trifluoroethyl)pyrazolo[4,3-c]pyridin-6-yl]methanone], the IC50 on human A2B receptors was less than 1000 nM; at human A2A receptors, less than 100 nM.

With `COc1ccc2ncc(-c3nn(CC(F)(F)F)c4cc(C(=O)N5CCCCCC5)ncc34)n2c1` [Compound 59, Azepan-1-yl-[3-(6-methoxy-imidazo[1,2-a]pyridin-3-yl)-1-(2,2,2-trifluoro-ethyl)-1H-pyrazolo[4,3-c]pyridin-6-yl]-methanone], the IC50 is less than 1000 nM on human A2B receptors and less than 100 nM at human A2A receptors.

Turning to `CS(=O)(=O)Cn1nc(-c2coc3ccccc23)c2cnc(C(=O)N3CC4CCC(C3)C4O)cc21` (stereo not drawn) [Compound 30, (3-Benzofuran-3-yl-1-methanesulfonylmethyl-1H-pyrazolo[4,3-c]pyridin-6-yl)-(8-endo-hydroxy-3-aza-bicyclo[3.2.1]oct-3-yl)-methanone], the IC50 at human A2B receptors and on human A2A receptors was less than 100 nM throughout.

Turning to `CCCn1nc(-c2cnc3ccc(C(N)=O)cn23)c2cnc(C(=O)N3CCCCCC3)cc21` [Compound 245, 3-[6-(Azepane-1-carbonyl)-1-propyl-1H-pyrazolo[4,3-c]pyridin-3-yl]-imidazo[1,2-a]pyridine-6-carboxylic acid amide], the IC50 at human A2B receptors is less than 1000 nM; on human A2A receptors, less than 100 nM.

With `O=C(c1cc2c(cn1)c(-c1cnc3c(F)cc(F)cn13)nn2CC(F)(F)F)N1CCCC(O)CC1` (stereo not drawn) [Compound 177, [3-(6,8-Difluoro-imidazo[1,2-a]pyridin-3-yl)-1-(2,2,2-trifluoro-ethyl)-1H-pyrazolo[4,3-c]pyridin-6-yl]-(4-hydroxy-azepan-1-yl)-methanone], the IC50 on human A2B receptors and on human A2A receptors was less than 100 nM each time.

The values above are taken from patent publication US20210380606A1, “5-AZAINDAZOLE DERIVATIVES AS ADENOSINE RECEPTOR ANTAGONISTS” (Merck Patent GmbH, priority 2018, published 2021).
